Measurements from US6468998B1, “Pyrrolidine compounds and medicinal utilization thereof” (Mitsubishi Pharma Corporation, priority 1998, dated 2002).

Tests used:
[1] = system: platelet rich plasma (PRP); assay: Platelet aggregation suppressive action (collagen + 5-HT, platelet rich plasma); type: cell-based, Japanese white rabbit; settings: Oryctolagus cuniculus, rabbit PRP, collagen + 3 μM 5-HT
Protocol: Platelet Aggregation Suppressive Action
Preparation of platelet rich plasma and a platelet aggregation test were performed according to the method of Born, G. V. R. et al. [Journal of Physiology, Vol. 168, p. 178 (1963)] as in the following. Blood was drawn from the carotid of male Japanese white rabbit with local anesthesia with xylocaine, using a syringe previously added with 3.8% sodium citrate in a 1/10 amount of the blood. This blood was centrifuged at 1000 round/min for 10 min at room temperature to give a platelet rich plasma (PRP) supernatant. This supernatant was further centrifuged at 3000 round/min for 10 min to give a platelet poor plasma (PPP) supernatant. Taking the measurement values of PRP and PPP as 0% aggregation and 100% aggregation, respectively, the platelet aggregation rate (%) was calculated. A test compound (3 μl) was added to 300 μl of PRP and the mixture was incubated at 37° C. for 5 min. Thereto were added, as aggregation inducing substances, collagen at a concentration prohibitive on aggregation by its single administration, and the final concentration of 3 μM of 5-HT, and the aggregation reaction was recorded for 7 min. The effect of the test compound was determined as percent suppression relative to the control group, using the maximum aggregation as an index. The 50% inhibition concentration (IC50) of the test compound was calculated by the nonlinear regression. In the same manner as above, a comparative experiment was conducted for the use of sarpogrelate and cilostazol, respectively as a control compound.

[2] = system: rat intermittent claudication model; assay: Effect on rat intermittent claudication model (femoral artery ligation, treadmill walking distance); type: in vivo; settings: for walking distance 8 days after administration (Δm): change vs value before ligation, mean±SE
Text: Effect on Rat Intermittent Claudication Model
Rat was anesthetized and the right thigh was opened to expose femoral artery, which was ligated with a silk thread at a position nearest possible to the heart (upstream). In addition, a position about 1 cm from the ligation site to the periphery was ligated with a silk thread, making two ligature sites. Starting from the next day of preparation of a model to day 8 therefrom, a drug was orally administered twice a day for 8 days. However, the drug was orally administered only in the evening of the first day of administration and only in the morning of the final administration day. The walking distance was measured one day before model preparation (initial value), day 1, day 5 and day 8 with a treadmill apparatus. Using a gait test table without an angle of inclination, the conveyor advance speed was first set to 15 m/min, and the speed was increased every 5 min by 5 m/min until the animal failed walking three times, based on which the walking distance of the rat was measured. In the same manner as above, a comparative experiment was performed using sarpogrelate and cilostazol, respectively as a control compound.
In the Table, the values are mean±standard error (n=8 but n=6 only for sarpogrelate group).

[3] = system: lauric acid-induced peripheral arterial obstruction model; assay: Lauric acid-induced peripheral arterial obstruction model (preventive effect); type: in vivo, Wistar rats; settings: for Lesion score 1 day later / Lesion score 3 days later / Lesion score 5 days later / Lesion score 7 days later: first dose 1 h before lauric acid, score 0 normal to 6; for peripheral circulatory disturbance (in words): prior to the lauric acid injection
Protocol: Effect on Lauric Acid-induced Peripheral Arterial Obstruction Model (Preventive Effect) Under anesthesia, lauric acid (0.75 mg/0.15 mL) was injected into the right femoral artery of Wistar rats (6-8 weeks of age). A drug was administered 1 hour before the lauric acid injection. The drug was orally administered twice a day for 8 days. In the same manner as above, a comparative experiment was performed using cilostazol as a control compound. In the Table, the values are mean±standard error (n=12).

[4] = system: lauric acid-induced peripheral arterial obstruction model; assay: Rat lauric acid-induced peripheral arterial obstruction model (therapeutic effect); type: in vivo, Wistar rats; settings: for Lesion score 3 days later / Lesion score 5 days later / Lesion score 7 days later / Lesion score 1 day later: score 0 normal to 6; for peripheral circulatory disturbance (in words): from one day after the lauric acid injection
Protocol: Effect on Rat Lauric Acid-induced Peripheral Arterial Obstruction Model (Therapeutic Effect) Under anesthesia, lauric acid (0.75 mg/0.15 mL) was injected into the right femoral artery of Wistar rats (6-8 weeks of age). A drug was administered one day after the lauric acid injection. The drug was orally administered twice a day for 7 days. In the same manner as above, a comparative experiment was performed using sarpogrelate and cilostazol as a control compound. In the Table, the values are mean±standard error (n=11).

[5] = system: collateral circulation model; assay: Promotion of collateral circulation (femoral artery ligation, ADP-added platelet suspension, leg blood flow); type: in vivo, rat; settings: for Change in blood flow, control side / Change in blood flow, femoral artery ligation side: 1 hour, after ADP-added platelet suspension
Protocol: Promotion of Collateral Circulation
A collateral circulation model was prepared by rat femoral artery ligation, and a test drug was orally administered 7 days later. At 1 hour from the test drug administration, ADP-added platelet suspension (200 μM) was administered under anesthesia into the femoral artery (1 mL/kg), and changes in the leg blood flow were measured. In the same manner as above, a comparative experiment was performed using cilostazol as a control compound.
(§1) In the Table, the values are mean±standard error (n=6).

[6] = Effect on heart rate and blood pressure; type: in vivo, Wistar rat; settings: for Change of blood pressure / Change of heart rate: 1 hour, no anesthesia or restriction
Protocol: Effect on Heart Rate and Blood Pressure
A catheter was placed in the femoral artery of Wistar rat, and the blood pressure and heart rate were invasively monitored under no anesthesia or restriction. At 1 hour from the oral administration of the test drug, blood pressure and heart rate were taken. In the same manner as above, a comparative experiment was performed using cilostazol as a control compound.
In the Table, the values are mean±standard error (n=4).

5-HT2 receptor = target: T1, 5-HT2 receptor (Rattus norvegicus, UniProt P14842); assay: Affinity for 5-HT2 receptor (binding with 3H-ketanserine); settings: rat cerebral cortex crude synapse membrane, 37° C. 20 min
T1 construct: A crude synapse membrane was prepared from a freeze-dried rat cerebral cortex; from tissue; host or cells: rat cerebral cortex (crude synaptic membrane)
T1 sequence (P14842 whole entry): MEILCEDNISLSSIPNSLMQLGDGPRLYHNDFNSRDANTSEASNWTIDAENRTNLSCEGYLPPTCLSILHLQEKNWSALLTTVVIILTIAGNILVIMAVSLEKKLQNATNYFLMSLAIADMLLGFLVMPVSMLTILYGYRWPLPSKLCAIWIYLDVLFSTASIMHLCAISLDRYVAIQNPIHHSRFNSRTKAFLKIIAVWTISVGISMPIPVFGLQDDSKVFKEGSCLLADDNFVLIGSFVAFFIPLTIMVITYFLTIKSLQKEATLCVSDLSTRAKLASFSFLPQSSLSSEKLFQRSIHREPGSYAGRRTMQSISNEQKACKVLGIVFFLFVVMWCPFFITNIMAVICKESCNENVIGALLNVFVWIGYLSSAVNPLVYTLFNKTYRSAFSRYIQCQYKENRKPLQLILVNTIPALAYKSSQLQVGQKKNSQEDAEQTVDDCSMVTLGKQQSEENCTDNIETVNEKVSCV
Protocol: Affinity for 5-HT2 Receptor (Binding with ^3H-ketanserine)
Preparation of a crude synapse membrane and a binding test were performed according to the method of Leysen J. E. et al. [Molecular Pharmacology, Vol. 21, p. 301 (1982)]. A crude synapse membrane was prepared from a freeze-dried rat cerebral cortex, and the membrane specimen and ^3H-ketanserine were incubated in the presence of a test compound at 37° C. for 20 min. After the completion of the reaction, the reaction mixture was immediately filtered by suction on a Whatmann GF/B filter (trademark), and the radioactivity on the filter was measured on a liquid scintillation counter. The amount of non-specific binding was measured in the presence of 10 μM mianserin. The 50% inhibition concentration (IC50) of the test compound was calculated by the nonlinear regression. In the same manner as above, a comparative test was performed using sarpogrelate as a control compound.

erythrocytes = assay: Improvement effect of erythrocyte deformation (Nuclepore membrane filter method); type: in vivo, SHRSP (stroke prone spontaneously hypertensive rat); settings: SHRSP; for Volume of erythrocytes passed: 5 μm filter
Protocol: Improvement Effect of Erythrocyte Deformation
Blood was drawn under anesthesia from SHRSP (stroke prone spontaneously hypertensive rat) loaded with 1% saline for 3 weeks, and the time necessary for 0.5 mL of blood to pass through a filter (pore size 5 μm, Nuclepore) was measured by the Nuclepore membrane filter method of Reid et al., based on which the volume (mL/min) of the erythrocytes passed was calculated. The volume of the erythrocytes passed was taken as an index of erythrocyte deformation. A drug was orally administered 1 hour before drawing the blood. In the same manner as above, a comparative experiment was performed using sarpogrelate as a control compound.
as §1

[7] = control compounds, 100 mg/kg per Table 2
[8] = 100 mg/kg oral twice a day from one day after lauric acid
[9] = 10 mg/kg oral twice a day from one day after lauric acid
[10] = 30 mg/kg oral twice a day from one day after lauric acid

SMILES: O=C1CCc2cc(OCCCCc3nnnn3C3CCCCC3)ccc2N1 [Cilostazol, reference compound]
- IC50 [1]: 1380 nM
- walking distance 8 days after administration (Δm) ([2]; 100 mg/kg oral twice a day): −149.8 ± 22.7 m
- walking distance at day 8 of ligation (in words) [2, 7]: increased the walking distance but the increase was not significant
- Lesion score 1 day later ([3]; 100 mg/kg oral twice a day): 1.8 ± 0.1
- Lesion score 3 days later ([3]; 100 mg/kg oral twice a day): 2.2 ± 0.2
- Lesion score 5 days later ([3]; 100 mg/kg oral twice a day): 1.8 ± 0.4
- Lesion score 7 days later ([3]; 100 mg/kg oral twice a day): 2.2 ± 0.5
- peripheral circulatory disturbance (in words) ([3]; 100 mg/kg): significantly reduced the peripheral circulatory disturbance
- Lesion score 3 days later [4, 8]: 1.5 ± 0.3
- Lesion score 5 days later [4, 8]: 1.4 ± 0.4
- Lesion score 7 days later [4, 8]: 1.3 ± 0.4
- peripheral circulatory disturbance (in words) ([4]; 100 mg/kg): significantly reduced the peripheral circulatory disturbance
- decrease in leg blood flow caused by ADP-added platelet suspension (in words) ([5]; 100 mg/kg): suppressed a decrease in the blood flow on the ligation side only slightly
- Change in blood flow, control side ([5]; 100 mg/kg oral): −27.0 ± 5.0 %
- Change in blood flow, femoral artery ligation side ([5]; 100 mg/kg oral): −63.3 ± 2.4 %
- Change of blood pressure ([6]; 100 mg/kg oral): 1.3 ± 1.3 mmHg
- Change of heart rate ([6]; 100 mg/kg oral): 43.8 ± 6.7 beats/min
- influence on heart rate (in words) ([6]; 300 mg/kg as printed): increased the heart rate

SMILES: O=C(N[C@H]1CCN(CCc2ccc(F)cc2)C1)C12CC3CC(CC(C3)C1)C2 [Example 2, (S)-N-(1-(2-(4-fluorophenyl)ethyl)pyrrolidin-3-yl)-1-adamantanecarboxamide]
- IC50 (5-HT2 receptor): 0.18 nM
- IC50 [1]: 1.9 nM
- walking distance 8 days after administration (Δm) ([2]; 3 mg/kg oral twice a day): −94.3 ± 36.1 m
- walking distance at day 8 of ligation (in words) ([2]; 3 mg/kg, 10 mg/kg and 30 mg/kg, b.i.d.): significantly increased
- walking distance 8 days after administration (Δm) ([2]; 10 mg/kg oral twice a day): −89.9 ± 22.2 m
- walking distance 8 days after administration (Δm) ([2]; 30 mg/kg oral twice a day): −88.6 ± 25.0 m
- peripheral circulatory disturbance (in words) ([3]; 10 mg/kg and 30 mg/kg): significantly reduced the peripheral circulatory disturbance
- Lesion score 1 day later ([3]; 10 mg/kg oral twice a day): 1.8 ± 0.1
- Lesion score 3 days later ([3]; 10 mg/kg oral twice a day): 2.1 ± 0.2
- Lesion score 5 days later ([3]; 10 mg/kg oral twice a day): 1.8 ± 0.3
- Lesion score 7 days later ([3]; 10 mg/kg oral twice a day): 1.9 ± 0.5
- Lesion score 1 day later ([3]; 30 mg/kg oral twice a day): 1.8 ± 0.2
- Lesion score 3 days later ([3]; 30 mg/kg oral twice a day): 2.0 ± 0.3
- Lesion score 5 days later ([3]; 30 mg/kg oral twice a day): 1.5 ± 0.4
- Lesion score 7 days later ([3]; 30 mg/kg oral twice a day): 1.2 ± 0.5
- Lesion score 1 day later [4, 9]: 2.0 ± 0.0
- Lesion score 3 days later [4, 9]: 2.2 ± 0.1
- Lesion score 5 days later [4, 9]: 2.2 ± 0.4
- Lesion score 7 days later [4, 9]: 2.2 ± 0.4
- Lesion score 1 day later [4, 10]: 1.8 ± 0.1
- Lesion score 3 days later [4, 10]: 1.7 ± 0.2
- Lesion score 5 days later [4, 10]: 1.3 ± 0.3
- Lesion score 7 days later [4, 10]: 0.9 ± 0.5
- peripheral circulatory disturbance (in words) ([4]; 30 mg/kg): significantly reduced the peripheral circulatory disturbance
- volume of the erythrocyte passed, % of the vehicle group (erythrocytes; 10 mg/kg): 133%
- Volume of erythrocytes passed (erythrocytes; 10 mg/kg oral 1 hour before drawing blood): 1.05 ± 0.13 mL/min
- volume of the erythrocyte passed, % of the vehicle group (erythrocytes; 30 mg/kg): 186%
- Volume of erythrocytes passed (erythrocytes; 30 mg/kg oral 1 hour before drawing blood): 1.47 ± 0.19 mL/min
- decrease in leg blood flow caused by ADP-added platelet suspension (in words) ([5]; 10 mg/kg oral): suppressed the decrease in the blood flow in the legs on both sides
- Change in blood flow, control side ([5]; 10 mg/kg oral): −10.1 ± 1.4 %
- Change in blood flow, femoral artery ligation side ([5]; 10 mg/kg oral): −11.8 ± 1.2 %
- influence on heart rate or blood pressure (in words) ([6]; 30 mg/kg and 100 mg/kg): did not influence the heart rate or blood pressure
- Change of blood pressure ([6]; 30 mg/kg oral): 0.0 ± 1.5 mmHg
- Change of heart rate ([6]; 30 mg/kg oral): −1.3 ± 4.7 beats/min
- Change of blood pressure ([6]; 100 mg/kg oral): −2.8 ± 0.8 mmHg
- Change of heart rate ([6]; 100 mg/kg oral): −4.5 ± 5.2 beats/min

SMILES: COc1cccc(CCc2ccccc2OCC(CN(C)C)OC(=O)CCC(=O)O)c1 (stereo not shown) [Sarpogrelate, reference compound]
- IC50 (5-HT2 receptor): 27 nM
- IC50 [1]: 260 nM
- walking distance 8 days after administration (Δm) ([2]; 100 mg/kg oral twice a day): −151.3 ± 35.4 m
- walking distance at day 8 of ligation (in words) [2, 7]: increased the walking distance but the increase was not significant
- Lesion score 1 day later [4, 8]: 1.9 ± 0.2
- Lesion score 3 days later [4, 8]: 2.3 ± 0.3
- Lesion score 5 days later [4, 8]: 2.1 ± 0.5
- Lesion score 7 days later [4, 8]: 2.4 ± 0.6
- volume of the erythrocyte passed, % of the vehicle group (erythrocytes; 100 mg/kg): 128%
- Volume of erythrocytes passed (erythrocytes; 100 mg/kg oral 1 hour before drawing blood): 1.01 ± 0.10 mL/min
